Experiment: Oral absorbability in rats: overall coenzyme Q10 concentration in plasma by HPLC after oral administration (AUC)
Design: species or system Spregue-Dawley rats
Conditions: rat, in vivo, 57.8 umol/kg
Protocol: (§1) To seven-weeks old male Spregue-Dawley rats (obtained from Japan SLC, Inc.) were orally administered the derivatives of reduced coenzyme Q10 obtained in Examples 3, 4 and 5 and the starting reduced coenzyme Q10 as control each in 57.8 μmol/kg (50 mg/kg in terms of reduced coenzyme Q10). Blood was extracted from each rat after 1, 2, 4, 8 and 24 hours after administration of each sample. Each extracted blood was centrifuged, so that plasma was obtained. Then, oxidation treatment of reduced coenzyme Q10 in the plasma and extraction treatment of oxidized coenzyme Q10 were performed, and then the overall coenzyme Q10 concentration in the plasma was measured as oxidized coenzyme Q10 by using HPLC.
as §1, with “derivative” for “derivatives”, “Referential Example 1” for “Examples 3, 4 and 5”

Question: For `COc1c(OC(C)=O)c(C)c(CC=C(C)CCC=C(C)CCC=C(C)CCC=C(C)CCC=C(C)CCC=C(C)CCC=C(C)CCC=C(C)CCC=C(C)CCC=C(C)C)c(OC(C)=O)c1OC` [Bisacetyl derivative, Bisacetyl Derivative], which “AUC (area under the blood concentration-time curve) as compared with reduced coenzyme Q10, in words” value is on record?
Answer: Its value is “lower”.
